Measured values from paper PMC11354204, “Lactylation stabilizes TFEB to elevate autophagy and lysosomal activity” (The Journal of Cell Biology, 2024).

Columns and labels:
p300; p300-HA = target: T1, p300; p300-HA (Homo sapiens, UniProt Q09472); assay: in vitro lactylation of recombinant human TFEB, anti-Kla western blot; type: biochemical; conditions: acyl donor; acceptor protein TFEB (10 μg); immunoprecipitated p300-HA; 50 mM Tris-HCl pH 8.0, 30 °C, 1 h
T1 construct: gene EP300; HA-tagged p300 immunoprecipitated from transfected HEK293T cells
T1 sequence (Q09472 2-2414): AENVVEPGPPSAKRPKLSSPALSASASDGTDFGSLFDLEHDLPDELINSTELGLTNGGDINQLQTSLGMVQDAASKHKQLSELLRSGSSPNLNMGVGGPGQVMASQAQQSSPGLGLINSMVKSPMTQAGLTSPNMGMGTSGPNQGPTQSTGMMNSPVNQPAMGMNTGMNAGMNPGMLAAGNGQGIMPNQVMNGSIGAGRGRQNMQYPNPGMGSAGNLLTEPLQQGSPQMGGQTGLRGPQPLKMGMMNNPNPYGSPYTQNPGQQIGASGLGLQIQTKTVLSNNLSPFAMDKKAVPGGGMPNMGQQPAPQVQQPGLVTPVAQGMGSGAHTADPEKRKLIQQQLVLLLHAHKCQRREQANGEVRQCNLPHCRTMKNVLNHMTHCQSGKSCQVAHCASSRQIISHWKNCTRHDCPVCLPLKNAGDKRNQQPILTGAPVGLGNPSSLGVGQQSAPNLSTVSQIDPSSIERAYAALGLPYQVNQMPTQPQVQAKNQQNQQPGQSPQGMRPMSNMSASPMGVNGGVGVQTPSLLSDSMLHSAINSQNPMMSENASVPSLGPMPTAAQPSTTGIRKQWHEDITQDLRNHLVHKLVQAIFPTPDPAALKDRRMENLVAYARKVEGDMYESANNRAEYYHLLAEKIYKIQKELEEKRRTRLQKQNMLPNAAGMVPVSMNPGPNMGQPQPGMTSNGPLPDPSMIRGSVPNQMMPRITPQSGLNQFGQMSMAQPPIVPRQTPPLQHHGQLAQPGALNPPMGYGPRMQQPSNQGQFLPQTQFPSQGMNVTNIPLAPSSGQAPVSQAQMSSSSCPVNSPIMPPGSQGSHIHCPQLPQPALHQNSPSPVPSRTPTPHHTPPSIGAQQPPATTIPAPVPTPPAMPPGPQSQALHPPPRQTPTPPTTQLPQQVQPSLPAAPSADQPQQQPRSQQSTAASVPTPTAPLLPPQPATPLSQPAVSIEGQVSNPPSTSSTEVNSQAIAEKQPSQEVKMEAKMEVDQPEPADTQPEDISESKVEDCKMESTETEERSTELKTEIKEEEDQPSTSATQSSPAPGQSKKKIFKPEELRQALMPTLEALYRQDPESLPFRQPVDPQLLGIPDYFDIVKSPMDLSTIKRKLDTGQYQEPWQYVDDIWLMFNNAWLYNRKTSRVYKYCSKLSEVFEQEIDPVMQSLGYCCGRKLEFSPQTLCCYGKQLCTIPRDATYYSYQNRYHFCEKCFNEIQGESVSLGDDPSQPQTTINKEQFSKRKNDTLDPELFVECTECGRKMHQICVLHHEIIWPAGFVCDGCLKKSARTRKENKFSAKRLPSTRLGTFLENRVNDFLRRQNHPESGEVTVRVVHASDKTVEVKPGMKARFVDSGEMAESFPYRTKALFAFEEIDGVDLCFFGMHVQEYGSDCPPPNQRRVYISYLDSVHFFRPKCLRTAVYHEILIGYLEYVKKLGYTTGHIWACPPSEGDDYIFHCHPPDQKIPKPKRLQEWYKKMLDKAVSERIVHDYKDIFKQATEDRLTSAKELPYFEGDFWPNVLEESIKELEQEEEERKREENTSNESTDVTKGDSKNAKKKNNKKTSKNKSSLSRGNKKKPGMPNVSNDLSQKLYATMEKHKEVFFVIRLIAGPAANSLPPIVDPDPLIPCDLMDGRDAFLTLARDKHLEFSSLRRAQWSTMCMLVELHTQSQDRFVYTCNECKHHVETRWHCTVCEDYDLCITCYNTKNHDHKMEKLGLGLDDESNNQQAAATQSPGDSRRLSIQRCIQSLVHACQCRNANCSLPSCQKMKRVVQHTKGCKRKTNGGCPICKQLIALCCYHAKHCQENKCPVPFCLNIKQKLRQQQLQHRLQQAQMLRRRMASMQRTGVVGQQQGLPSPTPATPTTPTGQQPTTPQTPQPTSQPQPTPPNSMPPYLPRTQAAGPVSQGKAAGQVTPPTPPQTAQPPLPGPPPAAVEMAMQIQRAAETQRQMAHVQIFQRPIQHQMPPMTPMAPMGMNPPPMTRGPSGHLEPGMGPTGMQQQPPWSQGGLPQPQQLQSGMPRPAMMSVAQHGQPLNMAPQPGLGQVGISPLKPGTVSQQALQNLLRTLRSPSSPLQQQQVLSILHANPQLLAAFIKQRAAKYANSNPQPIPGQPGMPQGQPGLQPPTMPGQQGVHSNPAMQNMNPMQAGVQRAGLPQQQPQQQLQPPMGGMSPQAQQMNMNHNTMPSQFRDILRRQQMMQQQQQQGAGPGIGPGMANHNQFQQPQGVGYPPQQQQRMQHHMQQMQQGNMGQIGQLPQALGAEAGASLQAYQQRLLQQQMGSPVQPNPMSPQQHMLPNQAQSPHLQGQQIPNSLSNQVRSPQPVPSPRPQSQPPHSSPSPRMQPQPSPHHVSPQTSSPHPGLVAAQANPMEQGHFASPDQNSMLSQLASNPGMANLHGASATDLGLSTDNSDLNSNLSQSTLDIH

NDRG3 = target: T2, NDRG3 (Homo sapiens, UniProt Q9UGV2); assay: isothermal titration calorimetry; intrinsic tryptophan fluorescence quenching; type: binding; conditions: ITC 25 °C, 10 mM lactate into 0.5 mM NDRG3; Trp quenching with sodium lactate, 100 μM protein, 10 mM NaH2PO4 pH 7.5; non-covalent; used as positive control for TFEB
T2 construct: human NDRG3 in pGEX-5X-1, GST-tagged, expressed in E. coli BL21, glutathione-Sepharose
T2 sequence (Q9UGV2 whole entry): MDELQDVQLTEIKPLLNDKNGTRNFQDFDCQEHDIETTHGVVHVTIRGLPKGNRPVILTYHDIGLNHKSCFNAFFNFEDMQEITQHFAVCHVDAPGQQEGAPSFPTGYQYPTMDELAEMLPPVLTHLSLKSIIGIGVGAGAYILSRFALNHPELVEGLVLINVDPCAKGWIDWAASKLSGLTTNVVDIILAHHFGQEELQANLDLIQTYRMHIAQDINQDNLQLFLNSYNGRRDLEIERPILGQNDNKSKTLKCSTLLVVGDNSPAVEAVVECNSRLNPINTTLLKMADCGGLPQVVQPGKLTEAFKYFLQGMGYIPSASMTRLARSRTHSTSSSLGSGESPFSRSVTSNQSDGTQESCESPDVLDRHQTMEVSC

Row | SMILES | in vitro lactylation of recombinant human TFEB, anti-Kla western blot (p300; p300-HA) | isothermal titration calorimetry; intrinsic tryptophan fluorescence quenching (NDRG3)
1 | C[C@H](O)C(=O)SCCNC(=O)CCNC(=O)[C@H](O)C(C)(C)COP(=O)(O)OP(=O)(O)OC[C@H]1O[C@@H](n2cnc3c(N)ncnc32)[C@H](O)[C@@H]1OP(=O)(O)O [L-lactyl-CoA] | lactylation was observed in TFEB incubated with p300-HA instead of transferase-inactivated p300-WY-HA | 
2 | C[C@H](O)C(=O)O [lactate] |  | sodium lactate resulted in the fixed tryptophan fluorescence quenching of purified NDRG3
